The conditions of series [1]: cited from earlier work.
For series [2] the following is noted: cited from earlier work; for P/N (DILI positive / DILI negative): P = DILI severity categories 1, 2 and 3, N = categories 4 and 5; for DILI category: clinical, from literature and product labels.
For series [3] the following is noted: ref Chen et al 2016 / Chen et al 2011; cited from earlier work.
Series [4] can be described thus: Clinical DILI severity categorization and DILI pattern. As to conditions: P = DILI severity categories 1, 2 and 3; N = categories 4 and 5.
Series [5] deals with primary human hepatocytes (PHH). Nature of the series: Cytotoxicity (cellular ATP, CellTiter-Glo) in 2D plated primary human hepatocytes, 48 h treatment.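 On all read-outs here: 384-well plates, luminescence read-out, normalized to vehicle wells with 1% DMSO.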 The class given is cell-based. As to conditions: for IC50: Hepatocyte, read-out: Geomean IC50.
Procedure: Cryopreserved PHH (lot IZT) were thawed in InVitroGro HT™ thawing media at 37 °C, pelleted, and resuspended. Viable hepatocytes were counted by Trypan blue exclusion and plated in black-walled, BioCoat™ collagen 384-well plates at 13,000 cells/well in InVitroGro CP™ plating media supplemented with 1% Torpedo™ Antibiotic Mix and 5% fetal bovine serum and incubated overnight for 18 h. Cells were then treated with compounds for 48 h diluted in InVitroGro HI™ incubation media containing 1% Torpedo Antibiotic Mix, 10% fetal bovine serum, and 1% DMSO. […] Luminescence was determined on an EnVision™ Muliplate Reader (PerkinElmer, Waltham, MA, USA), and data were normalized to vehicle (1% DMSO) control wells.
The test system of series [6] is 3D human liver microtissues (hLiMT). The experiment in a line: Cytotoxicity (cellular ATP, CellTiter-Glo 2.0) in 3D human liver microtissues, 14 day repeat-dose treatment. The note with it: for IC50: Homo sapiens, Hepatocyte, 336 h, read-out: Geomean IC50 [µM]; for classification at 50× MOS threshold: hLiMT 14 days.
Setting [7] is: human Cmax total, used for IC50/Cmax.
Where [8] appears, read: human total plasma Cmax, ref literature values.
Setting [9] is: Table 1, ref Garside et al. (2014).
Where [10] appears, read: clinical DILI severity category, 1-5.
Setting [11] is: 2D primary human hepatocytes (lot IZT), 48 h treatment, total cellular ATP content.
[12] abbreviates: table S-5, ref Garside et al. 2014.

Read-outs that look alike come from different tables or passages of the source.

Consider `CC(C)(C)NCC(O)c1ccc(O)c(CO)c1` (stereo not drawn) [Albuterol], for which the peak concentration (Cmax) in series [1] (setting [7]) and in series [1] (setting [8]) was 80 nM each time. Further, the “P/N (DILI positive / DILI negative)” value in series [2] and in series [4] was “N” each time. In addition, the results for the DILI severity category in series [2] (setting [9]) and in series [2] (setting [10]) were 5: No DILI (N = 25) and 5. No DILI, respectively. In series [2] (ref Garside et al. 2014), the DILI category is 5. No DILI. Also, the “LTKB DILI classification” value in series [3] was “no DILI concern”.
`NC(CO)C(=O)NNCc1ccc(O)c(O)c1O` (stereo not drawn) [Benserazide]: the IC50 in series [5] (setting [11]) is above 500 µM; in series [6], above 62.5 µM. Moreover, the highest concentration (Cmax) in series [1] (setting [7]) and in series [1] (setting [8]) was 3890 nM each time. The “P/N (DILI positive / DILI negative)” value in series [2] and in series [4] was “N” each time. The results for the DILI severity category in series [2] (setting [9]) and in series [2] (setting [10]) were 5: No DILI (N = 25) and 5. No DILI, respectively. Also, in series [2] (ref Garside et al. 2014), the DILI category is 5. No DILI.
With `CN1[C@@H]2CC[C@H]1C[C@@H](OC(c1ccccc1)c1ccccc1)C2` [Benztropine], the “classification at 50× MOS threshold” value in series [5] (PHH 48 h) and in series [6] was “false positive” throughout. Besides, the Cmax is 585 nM in series [1] (setting [7]) and 590 nM in series [1] (setting [8]). Besides, the “P/N (DILI positive / DILI negative)” value in series [2] and in series [4] was “N” in each case. The DILI severity category in series [2] (setting [9]) is given as 5: No DILI (N = 25); in series [2] (setting [10]), 5. No DILI. The DILI category in series [2] (ref Garside et al. 2014) is recorded as 5. No DILI. Also, the “FDA DILI Classification DILI severity score” value in series [3] is recorded as 0. For the same compound, the “LTKB DILI classification” value in series [3] is reported as “no DILI concern”.
As for `CCCCNc1cc(C(=O)O)cc(S(N)(=O)=O)c1Oc1ccccc1` [Bumetanide], the IC50 in series [5] (setting [11]) and in series [6] was above 10 µM in each case. In addition, the Cmax in series [1] (setting [7]) and in series [1] (setting [8]) was 84.8 nM in each case. Moreover, the “P/N (DILI positive / DILI negative)” value in series [2] and in series [4] was “N” in each case. The results for the DILI severity category in series [2] (setting [9]) and in series [2] (setting [10]) were 4: Enzyme elevations in clinic (N = 16) and 4. Enzyme Elevations in Clinic, respectively. Further, the DILI category in series [2] (ref Garside et al. 2014) was 4. Enzyme Elevations in Clinic. The “FDA DILI Classification DILI severity score” value in series [3] was 3. Moreover, the “LTKB DILI classification” value in series [3] was “Ambiguous DILI concern”.
In the case of `O=C1CC2(CCCC2)CC(=O)N1CCCCN1CCN(c2ncccn2)CC1` [Buspirone], the concentration for half-maximal inhibition (IC50) was above 200 µM in series [5] (setting [11]) and 163 µM in series [6]. The maximum concentration (Cmax) in series [1] (setting [7]) and in series [1] (setting [8]) was 10 nM throughout. The “P/N (DILI positive / DILI negative)” value in series [2] and in series [4] was “N” in each case. Moreover, the DILI severity category in series [2] (setting [9]) is 4: Enzyme elevations in clinic (N = 16); in series [2] (setting [10]), 4. Enzyme Elevations in Clinic. In addition, the DILI category in series [2] (ref Garside et al. 2014) is 4. Enzyme Elevations in Clinic. The “classification at 50× MOS threshold” value in series [6] is on record as “not”.
Consider `[H]/N=C(/N)c1ccc(NCc2nc3cc(C(=O)N(CCC(=O)O)c4ccccn4)ccc3n2C)cc1` [Dabigatran], for which the 50% inhibitory concentration (IC50) is above 25 µM in series [5] (Homo sapiens, 48 h) and above 50 µM in series [6]. Besides, the peak concentration (Cmax) in series [1] (setting [7]) and in series [1] (setting [8]) was 370 nM in each case. Also, the “P/N (DILI positive / DILI negative)” value in series [2] and in series [4] was “N” in each case. Moreover, the DILI severity category in series [2] (setting [9]) is on record as 4: Enzyme elevations in clinic (N = 16); in series [2] (setting [10]), 4. Enzyme Elevations in Clinic. For the same compound, the DILI category in series [2] (ref Garside et al. 2014) is listed as 4. Enzyme Elevations in Clinic.
For the compound `C[C@@H]1C[C@H]2[C@@H]3CCC4=CC(=O)C=C[C@]4(C)[C@@]3(F)[C@@H](O)C[C@]2(C)[C@@]1(O)C(=O)CO` [Dexamethasone], the concentration for half-maximal inhibition (IC50) in series [5] (setting [11]) and in series [6] was above 100 µM each time. Besides, the highest concentration (Cmax) in series [1] (setting [7]) and in series [1] (setting [8]) was 220 nM each time. In addition, the “P/N (DILI positive / DILI negative)” value in series [2] and in series [4] was “N” throughout. Further, the values for the DILI severity category in series [2] (setting [9]), in series [2] (setting [10]) and in series [2] (setting [12]) were 4: Enzyme elevations in clinic (N = 16), 4. Enzyme Elevations in Clinic and 4. Enzyme Elevations in Clinic, respectively. In addition, the DILI category in series [2] (ref Garside et al. 2014) is listed as 4. Enzyme Elevations in Clinic. Further, in series [3], the “FDA DILI Classification DILI severity score” value is reported as 3. In addition, the “LTKB DILI classification” value in series [3] is reported as “Ambiguous DILI concern”.
As to `O=C(NC1CCN(CCc2c[nH]c3ccccc23)CC1)c1ccccc1` [Indoramin], the 50% inhibitory concentration (IC50) in series [5] (setting [11]) and in series [6] was above 50 µM in each case. In addition, the Cmax in series [1] (setting [7]) and in series [1] (setting [8]) was 290 nM in each case. Further, the “P/N (DILI positive / DILI negative)” value in series [2] and in series [4] was “N” in each case. Moreover, the DILI severity category in series [2] (setting [9]) is given as 5: No DILI (N = 25); in series [2] (setting [10]) it was 5. No DILI. Moreover, the DILI category in series [2] (ref Garside et al. 2014) is 5. No DILI.
With `CN(C)C(=O)Oc1cccc([N+](C)(C)C)c1` [Neostigmine], the 50% inhibitory concentration (IC50) in series [5] (setting [11]) and in series [6] was above 10 µM in each case. Moreover, the Cmax in series [1] (setting [7]) was 45 nM; in series [1] (setting [8]), 44.8 nM. The “P/N (DILI positive / DILI negative)” value in series [2] and in series [4] was “N” each time. In addition, the DILI severity category is 5: No DILI (N = 25) in series [2] (setting [9]) and 5. No DILI in series [2] (setting [10]). Besides, the DILI category in series [2] (ref Garside et al. 2014) is reported as 5. No DILI.
In the case of `Cc1ccccc1C(OCCN(C)C)c1ccccc1` (stereo not drawn) [Orphenadrine], the maximum concentration (Cmax) in series [1] (setting [7]) and in series [1] (setting [8]) was 740 nM in each case. Moreover, the “P/N (DILI positive / DILI negative)” value in series [2] and in series [4] was “N” throughout. The DILI severity category in series [2] (setting [9]) was 5: No DILI (N = 25); in series [2] (setting [10]), 5. No DILI; in series [2] (setting [12]) it was 5. No DILI. Besides, the DILI category in series [2] (ref Garside et al. 2014) is 5. No DILI. For the same compound, in series [3], the “FDA DILI Classification DILI severity score” value was 0. In series [3], the “LTKB DILI classification” value is reported as “no DILI concern”.
For the compound `C#CCN(C)Cc1ccccc1` [Pargyline], the concentration for half-maximal inhibition (IC50) in series [5] (setting [11]) and in series [6] was above 100 µM throughout. The Cmax in series [1] (setting [7]) and in series [1] (setting [8]) was 1000 nM each time. Moreover, the “P/N (DILI positive / DILI negative)” value in series [2] and in series [4] was “N” in each case. The DILI severity category in series [2] (setting [9]) was 4: Enzyme elevations in clinic (N = 16); in series [2] (setting [10]) it was 4. Enzyme Elevations in Clinic; in series [2] (setting [12]), 4. Enzyme Elevations in Clinic. The DILI category in series [2] (ref Garside et al. 2014) is recorded as 4. Enzyme Elevations in Clinic.
Regarding `Cc1cc(CC(=O)O)n(C)c1C(=O)c1ccc(Cl)cc1` [Zomepirac], the concentration for half-maximal inhibition (IC50) in series [5] (setting [11]) and in series [6] was above 1000 µM each time. The Cmax in series [1] (setting [7]) and in series [1] (setting [8]) was 13700 nM each time. In addition, the “P/N (DILI positive / DILI negative)” value in series [2] and in series [4] was “N” throughout. The DILI severity category in series [2] (setting [9]) was 5: No DILI (N = 25); in series [2] (setting [10]), 5. No DILI. Moreover, the DILI category in series [2] (ref Garside et al. 2014) is listed as 5. No DILI.

Source of the values: publication PMC5515971, “Utility of spherical human liver microtissues for prediction of clinical drug-induced liver injury” (Archives of Toxicology, 2017).
